This is an account of results in patent US20230108442A1, “NOVEL ANTIMALARIAL AGENT CONTAINING HETEROCYCLIC COMPOUND” (Eisai R&D Management Co., Ltd., priority 2020, published 2023).

By IC50 is commonly meant the point on the concentration scale where inhibition reaches its midpoint.

Several values for one entry are separate records, joined by “and”; a condition that tells them apart may be missing. Identical values can stand only once.

Assay [1] relates to Plasmodium falciparum strain 3D7 (chloroquine-sensitive). Briefly: in vitro drug susceptibility test, parasite lactate dehydrogenase detection, strain 3D7. Format: cell-based. The conditions noted are these: 72 hours incubation, pLDH absorbance at 660 nm, read-out: Pf_3D7 IC50. As for the experimental part:
(§1) Plasmodium falciparum strain 3D7 (chloroquine-sensitive) and K1 (chloroquine-resistant) were obtained from Kitasato University and used for testing antimalarial activities in vitro. The cultivation of P. falciparum was conducted according to Trager's method (Trager, W and Jensen and J., Human malaria parasites in continuous culture. Science, 193:673-677, 1976) with some modification. Precisely, parasites were kept in culture flasks with RPMI1640 medium supplemented with 10% human plasma and 2% fresh human erythrocytes and incubated at 37° C. with the gas condition of 5% CO2 and 5% 02. The parasitemia (percentage of infected erythrocytes to total erythrocytes) were kept within 0.25-10%. Culture medium were replaced and fresh erythrocytes were supplied every 2-3 days. Drug susceptibility test was conducted according to Desjardins's method (Desjardins, R. E., Canfield, C. J., Haynes, D. E. and Chulay, J. D., Quantitative assessment of antimalarial activity in vitro by a semiautomated microdilution technique. Antimicrob. Agents Chemother., 16:710-718, 1979) with some modification. The compounds I to IX and known antimalarial agents (chloroquine and artemisinin) were tested at the same time. Precisely, 199 micro L of parasite cultures (2% hematocrit and 0.75-1% parasitemia) and 1 micro L of compound solution serially diluted in DMSO were poured into every well in 96-well titer plates and final drug concentrations were set within 0.001-1 micro g/mL. The plates were kept at 37° C. with the gas condition of 5% CO2 and 5% O2 for 72 hours and then parasite growth was quantified with Makler's method to detect plasmodial lactate dehydrogenase (Makler, M. T., Rise, J. M., Williams, J. A., Bancroft, J. E., Piper, R. C., Gibbins, B. L. and Hinrichs, D. J., Parasite lactate dehydrogenase as an Assay for Plasmodium falciparum drug sensitivity. Am. J. Med. Hyg., 48:739-741, 1993) with some modification. Precisely, culture plate was kept in freezer overnight and then thawed at 37° C. to disrupt the erythrocytes and parasite cells. In the new 96-well titer plates, 100 micro L of enzyme reaction solution (110 mM Li-lactate, 0.5 mM acetylpyridine-adenine dinucleotide, 50 mM Tris (pH 7.5), 10 mM EDTA, 50 mM KCl and 15 g/L PEG6000) and 20 micro L of freeze-thaw culture were mixed in each well and then kept at room temperature for 30 minutes. The detection solution was prepared by mixing equal volume of 2 mg/mL nitro blue tetrazolium and 0.1 mg/mL phenazine ethosulfate and 20 micro L of the solution was added to each well. After the incubation at room temperature in the dark for 90 minutes, absorbance at 660 nm was analysed and IC50s were calculated from dose response curve.

Assay [2] relates to Plasmodium falciparum strain K1 (chloroquine-resistant). Briefly: in vitro drug susceptibility test, parasite lactate dehydrogenase detection, strain K1. Format: cell-based. The conditions noted are these: 72 hours incubation, pLDH absorbance at 660 nm, read-out: Pf_K1 IC50. How it is done:
as §1

Assay [3] relates to Plasmodium falciparum Pf3D70087/N9. The assay can be described thus: humanized murine malaria model, parasitemia by flow cytometry. Format: in vivo. As to conditions: oral, once daily for three days (I, V) or four days (II), start 72 h post infection, read seven days post infection. How it is done:
The following pharmacological tests in the humanized murine malaria model were conducted using the compounds I, II and V at The Art of Discovery S.L. (Bizkaia, Spain). Briefly, mice engrafted with human erythrocytes were intravenously infected with parasitized red blood cells 72 h before drug treatment inception. The effect of treatment on parasitemia was assessed by measuring the percentage of infected erythrocytes in peripheral blood.
Plasmodium falciparum Pf3D70087/N9, the parasite strain used in this experiment, was described in reference (1). Immunodeficient female NSG (NOD-scid IL-2Rγnull) mice were engrafted with human erythrocytes to have a minimum of 40% of human erythrocytes circulating in peripheral blood during the whole experiment. Each mouse was intraperitoneally (i.p.) or intravenously (i.v.) inoculated with 1 mL (i.p.) or 0.7 mL (i.v.) of 50%-75% hematocrit erythrocyte suspension in RPMI1640 medium, 25% (vol/vol) decomplemented human serum, 3.1 mM hypoxanthine. Then humanized NSG mice were infected with peripheral blood from donor mice by intravenous injection of 0.3 mL of 1.17×10^8 parasitized-erythrocytes per ml suspension. Drug treatment was started after 72-h post infection. In the treatment, 10 ml/kg of compound solution were orally administered to each mouse, once daily for three or four days (three days for compounds I and V, four days for compound II, respectively). An analysis of the parasite population in peripheral blood was performed by flow cytometry as shown in reference (2) and the outcome was shown as the parasitemia expressed as the % of parasitized erythrocytes to the total erythrocytes in peripheral blood. Briefly, serial 2 micro L blood samples of peripheral blood from infected mice were stained with TER-119-Phycoerythrine (marker of murine erythrocytes) and SYTO-16 (nucleic acid dye) and then analyzed by flow cytometry. The therapeutic efficacies were expressed as ED90, the daily doses that reduce by 90% parasitemia to untreated control animals after seven days post infection.
Background: Flow cytometry measures light scatter and fluorescence of single cells or particles in a stream.

For `Cc1nn(C(F)F)cc1-c1cc(C(=O)NCc2ccc(O[C@H](C)C(F)(F)F)cc2)c(N)nc1N` [III, (R)-2,6-diamino-5-(1-(difluoromethyl)-3-methyl-1H-pyrazol-4-yl)-N-(4-((1,1,1-trifluoropropan-2-yl)oxy)benzyl)nicotinamide], the IC50 is 0.078 µg/mL and 162 nM in assay [1]; 0.121 µg/mL and 249 nM in assay [2].

Consider `Nc1nc(N)c(-n2cnc(C(F)(F)F)n2)cc1C(=O)NCc1ccc(OCC(F)(F)F)cc1` [IV, 2,6-diamino-N-(4-(2,2,2-trifluoroethoxy)benzyl)-5-(3-(trifluoromethyl)-1H-1,2,4-triazol-1-yl)nicotinamide], for which the IC50 was 125 nM in assay [1]; 0.031 µg/mL and 171 nM in assay [2].

With `Nc1nc(N)c(-c2cnn(C(F)F)c2)cc1C(=O)NCc1ccc(OCC(F)(F)F)cc1F` [IX, 2,6-diamino-5-(1-(difluoromethyl)-1H-pyrazol-4-yl)-N-(2-fluoro-4-(2,2,2-trifluoroethoxy)benzyl)nicotinamide], the IC50 in assay [1] was 0.05 µg/mL and 113 nM; in assay [2], 0.083 µg/mL and 160 nM.

In the case of `C[C@@H](Oc1ccc(CNC(=O)c2cc(-n3cnc(C(F)F)n3)c(N)nc2N)cc1)C(F)(F)F` [V, (R)-2,6-diamino-5-(3-(difluoromethyl)-1H-1,2,4-triazol-1-yl)-N-(4-((1,1,1-trifluoropropan-2-yl)oxy)benzyl)nicotinamide], the IC50 in assay [1] is 0.047 µg/mL and 99 nM; in assay [2] it was 0.075 µg/mL and 160 nM. In addition, in assay [3], the “ED90, daily dose that reduces parasitemia by 90% to untreated control animals” value stood at 6.2 mg/kg/day.

Turning to `C[C@@H](Oc1ccc(CNC(=O)c2cc(-n3cnc(CC(F)(F)F)n3)c(N)nc2N)cc1)C(F)(F)F` [VI, (R)-2,6-diamino-5-(3-(2,2,2-trifluoroethyl)-1H-1,2,4-triazol-1-yl)-N-(4-((1,1,1-trifluoropropan-2-yl)oxy)benzyl)nicotinamide], the IC50 in assay [1] is 0.024 µg/mL and 48 nM; in assay [2] it was 0.038 µg/mL and 75 nM.

For `Nc1nc(N)c(-n2cnc(C3(C(F)(F)F)CC3)n2)cc1C(=O)NCc1ccc(OCC(F)(F)F)cc1` [VII, 2,6-diamino-N-(4-(2,2,2-trifluoroethoxy)benzyl)-5-(3-(1-(trifluoromethyl)cyclopropyl)-1H-1,2,4-triazol-1-yl)nicotinamide], the IC50 in assay [1] is 0.016 µg/mL and 30 nM; in assay [2], 0.021 µg/mL and 41 nM.

In the case of `C[C@@H](Oc1ccc(CNC(=O)c2cc(-n3cnc(C4(F)CC4)n3)c(N)nc2N)cc1)C(F)(F)F` [VIII, (R)-2,6-diamino-5-(3-(1-fluorocyclopropyl)-1H-1,2,4-triazol-1-yl)-N-(4-((1,1,1-trifluoropropan-2-yl)oxy)benzyl)nicotinamide], the IC50 in assay [1] was 0.02 µg/mL and 54 nM; in assay [2], 0.031 µg/mL and 64 nM.

As for `C[C@@H](Oc1ccc(CNC(=O)c2cc(-n3cnc(C(F)(F)F)n3)c(N)nc2N)cc1)C(F)(F)F` [compound I, (R)-2,6-diamino-5-(3-(trifluoromethyl)-1H-1,2,4-triazol-1-yl)-N-(4-((1,1,1-trifluoropropan-2-yl)oxy)benzyl)nicotinamide], the IC50 in assay [1] is 0.026 µg/mL; in assay [2], 0.043 µg/mL and 30 nM. For the same compound, the “ED90, daily dose that reduces parasitemia by 90% to untreated control animals” value in assay [3] came out at 3.2 mg/kg/day.

On to `C[C@@H](Oc1ccc(CNC(=O)c2cc(-c3cnn(C(F)F)c3)c(N)nc2N)cc1)C(F)(F)F` [compound II, (R)-2,6-diamino-5-(1-(difluoromethyl)-1H-pyrazol-4-yl)-N-(4-((1,1,1-trifluoropropan-2-yl)oxy)benzyl)nicotinamide], for which the IC50 in assay [1] is 0.02 µg/mL and 42 nM; in assay [2], 0.025 µg/mL and 53 nM. Also, the “ED90, daily dose that reduces parasitemia by 90% to untreated control animals” value in assay [3] was 5.0 mg/kg/day.
